Assay [1] addresses T1, BRD4-BD1 (44-164) (Homo sapiens, UniProt O60885).
T1 construct: BRD4-BD1 (44-164); made in house; host or cells: E. coli BL21-CodonPlus (DE3)
Briefly: Alphascreen binding assay BRD4-BD1 (BRD4 biochemical inhibitory activity). Conditions: read-out: Biochemical activity (IC50 μM) BRD4(1) H4. As for the experimental part:
Binding of compounds of formula (I) with bromodomain 2, 3 4 was assessed using Alphascreen binding assay. The inhibition of the interaction between bromodomain and its acetylated target protein (Filippakopoulos P et al. 2012) was measured quantitatively using recombinant BRD proteins, an acetylated Histone 4 peptide and AlphaScreen™ technology. In absence of inhibition the BRD protein bound to AlphaScreen™ nickel chelate acceptor beads can interact with the acetylated Histone 4 peptide which is immobilized by the AlphaScreen™ Streptavidin coated beads. This interaction brings donor and acceptor beads in proximity. The close proximity allows the singlet oxygen produced by laser excitation of the donor beads to reach the acceptor beads and generate a luminescence signal. BRD inhibitors result in a decrease in the proximity signal through an inhibition of the BRD—acetylated peptide interaction.
Recombinant human bromodomains containing the N-terminal bromodomain (BRD2-BD1 (71-194), BRD3-BD1 (24-144) and BRD4-BD1 (44-164)) or dual bromodomains (BRD4-BD12 (1-477), BRD4-BD12 (1-472)) were prepared and purified as described in protein expression and purification session. The peptide is human Histone H41-21K5AcK8AcK12AcK16Ac-Biotin (Anaspec Calif., USA).
Protocol for BRD2, BRD3 and BRD4 assay: All components are prepared in buffer composed of 50 mM HEPES pH 7.5, 100 mM NaCl, 0.01% bovine serum albumin (“BSA”), 0.01% Triton X-100, 2 mM dithiothreitol (“DTT”). 7 μL of Bromodomain protein and 7 μL of peptide are added to wells containing 1 μL of various concentrations of test compounds of formula (I) or DMSO vehicle in an Alphaplate (PerkinElmer Ga., USA) and incubated for 1 hour at room temperature. 4 μL donor and acceptor bead mixture is then added with final concentrations of 7.5 μg/ml. 30 minutes after bead addition, Alpha signal is read on the Envision spectrometer ([…]Ex 680 nm, […]Em 520-620 nm). Final concentrations of bromodomain proteins and peptide are as shown below.
All data was normalized to the mean of 16 high and 16 low control wells on each plate. A four parameter curve fit of the following formula was then applied: Y=a+(b−a)/(1+(x/c)^d) Where ‘a’ is the minimum, ‘b’ is the maximum, ‘c’ is the pIC50 and ‘d’ is the Hill slope. Protein Expression and Purification
Recombinant human bromodomains containing the N-terminal bromodomain (BRD2-BD1 (71-194), BRD3-BD1 (24-144) and BRD4-BD1 (44-164)) or dual bromodomains (BRD4-BD12 (1-477), BRD4-BD12 (1-472)) were expressed in E. coli cells (in a modified pET vector) with an N-terminal six-His tag and purified using a combination of both IMAC (Ni-affinity) and size exclusion chromatography steps.
Recombinant BRD proteins were expressed using the E. coli strain BL21-CodonPlus (DE3) (Agilent Technologies Calif., USA). Cells were grown in Terrific Broth (TB) media to an OD600 of 1.2 at 37° C. at which temperature was reduced to 25° C., protein was induced with 1.0 mM ispropyl-β-D-thiogalactopyranoside (“IPTG”) for 12-18 hours and harvested by centrifugation at 8000×g for 20 minutes. Cells were re-suspended in 0.1M K2PO4 pH 8.0, 250 mM NaCl, 10% Glycerol, 0.75% NP-40, 25 mM Imidazole, 5 mM beta-mercaptoethanol (“BME”) with 0.2 mg/ml Lysosyme, 2.0 mM phenylmethanesulfonyl fluoride (“PMSF”), 25 μg/ml DNAse I, incubated on ice for 30 minutes and lyzed with a cell disruptor (MicroFluidics Mass., USA). The lysate was clarified by centrifugation at 20,000×g for 2 hours. The protein was captured with Ni-NTA resin (Life Technologies, USA). Contaminating proteins were washed off with 25 mM Tris-HCl pH 8.3, 250 mM NaCl, 12% Glycerol and 50 mM Imidazole. Following 3× wash steps, protein was eluted step wise using a 50 mM HEPES pH 7.5, 500 mM NaCl and 400 mM Imidazole. The protein was further purified using Gel Filtration column 26/600 Superdex 200 (GE Biosciences NJ, USA) in 50 mM HEPES pH 7.5, 250 mM NaCl. The protein was aliquoted and flash-frozen in liquid Nitrogen. […]
In general terms: Bead proximity is the source of the signal in Alpha formats.

Assay [2] has as its system bromodomain. Briefly: Bromodomain cell assays of Example 40 (at least one of them). Type of assay: cell-based. Particulars: in at least one of the bromodomain cell assays described in Example 40. A digest of the protocol:
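Growth inhibition: 3000 MV-4-11, MOLM-13, MM.1S or neuroblastoma cells/well got an 8-point 1:3 series from 10 μM top (0.2% DMSO) for 72 h, then CellTiter-Glo luminescence. Myc reporter: MV-4-11 with E-box firefly luciferase, 24 h exposure, One-Glo luminescence plus CellTiter-Fluo cell count. pIC50 from four-parameter fit.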

For assay [3], the system named is MV-4-11. Briefly: Oncology cell growth assay MV-4-11 (CellTiter Glo, 72 hours). Format: cell-based. Particulars: Homo sapiens, MV4-11, 72 h; MV-4-11 cell growth inhibitory activity, 3d. The gist of the method:
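MV-4-11 cells (MLL-AF4 AML) exposed 72 h to 8-point 1:3 titration, top final 10 μM, 0.2% DMSO. CellTiter Glo luminescence as cell-number readout, normalized to DMSO controls; pIC50 from four-parameter fit.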
Background: In ATP-based viability assays light output follows the ATP content of the culture.

On to `Cc1noc(C)c1-c1cnc2[nH]c(-c3ccccc3)cc2c1` [P-0001, 3,5-dimethyl-4-(2-phenyl-1H-pyrrolo[2,3-b]pyridin-5-yl)isoxazole], for which the IC50 in assay [1] is 1 to 10 µM; in assay [2], under 10 µM.

As for `Cc1noc(C)c1-c1cnc2[nH]cc(C(=O)c3cccnc3)c2c1` [P-0004, [5-(3,5-dimethylisoxazol-4-yl)-1H-pyrrolo[2,3-b]pyridin-3-yl]-(3-pyridyl)methanone], the IC50 in assay [1] is 1 to 10 µM; in assay [2], under 10 µM.

For the compound `Cc1noc(C)c1-c1cnc2[nH]c(C)c(C(=O)c3cccnc3)c2c1` [P-0006, [5-(3,5-dimethylisoxazol-4-yl)-2-methyl-1H-pyrrolo [2,3-b]pyridin-3-yl]-(3-pyridyl)methanone], the IC50 in assay [1] was 1 to 10 µM; in assay [2], under 10 µM.

Consider `COc1ccccc1S(=O)(=O)n1ccc2ncc(-c3c(C)noc3C)cc21` [P-0065, 4-[1-(2-methoxyphenyl)sulfonylpyrrolo[3,2-b]pyridin-6-yl]-3,5-dimethyl-isoxazole], for which the values for the IC50 in assay [1] and in assay [2] were 1 to 10 µM and under 10 µM, respectively.

As for `Cc1noc(C)c1-c1ccc2[nH]ccc2c1` [P-0002, 4-(1H-indol-5-yl)-3,5-dimethyl-isoxazole], the IC50 in assay [1] was 1 to 10 µM; in assay [2], under 10 µM.

Turning to `Cc1noc(C)c1-c1cnc2c(C#N)c[nH]c2c1` [P-0082, 6-(3,5-dimethylisoxazol-4-yl)-1H-pyrrolo[3,2-b]pyridine-3-carbonitrile], the IC50 was 1 to 10 µM in assay [1] and under 10 µM in assay [2].

Consider `Cc1noc(C)c1-c1cnc2[nH]c(-c3ccc(F)cc3)c(C(=O)c3cccnc3)c2c1` [P-0008, [5-(3,5-dimethylisoxazol-4-yl)-2-(4-fluorophenyl)-1H-pyrrolo[2,3-b]pyridin-3-yl]-(3-pyridyl)methanone], for which the IC50 in assay [1] was 1 to 10 µM; in assay [2], under 10 µM.

As to `[2H]C([2H])([2H])n1cc(I)c2cc(-c3c(C)noc3C)cnc21` [P-0088, 4-[3-iodo-1-(trideuteriomethyl)pyrrolo[2,3-b]pyridin-5-yl]-3,5-dimethyl-isoxazole], the IC50 in assay [1] was 1 to 10 µM; in assay [2], under 10 µM.

As to `Cc1noc(C)c1-c1cnc2c(c1)N(S(=O)(=O)c1ccccc1)CC2CCC(=O)O` (stereo not drawn) [P-0175, 3-[1-(benzenesulfonyl)-6-(3,5-dimethylisoxazol-4-yl)-2,3-dihydropyrrolo[3,2-b]pyridin-3-yl]propanoic acid], the IC50 was 1 to 10 µM in assay [1] and under 10 µM in assay [2].

Turning to `Cc1noc(C)c1-c1cnc2c(-c3cnn(C)c3)cn(C(CF)c3ccccc3)c2c1` (stereo not drawn) [P-0187, 4-[1-(2-fluoro-1-phenyl-ethyl)-3-(1-methylpyrazol-4-yl)pyrrolo[3,2-b]pyridin-6-yl]-3,5-dimethyl-isoxazole], the IC50 in assay [3] is at most 1 µM; in assay [2], under 10 µM.

For the compound `C=CCn1cc(-c2cn(S(=O)(=O)CCC)c3cc(-c4c(C)noc4C)cnc23)cn1` [P-0137, 4-[3-(1-allylpyrazol-4-yl)-1-propylsulfonyl-pyrrolo[3,2-b]pyridin-6-yl]-3,5-dimethyl-isoxazole], the results for the IC50 in assay [3] and in assay [2] were at most 1 µM and under 10 µM, respectively.

Regarding `Cc1noc(C)c1-c1cnc2c(c1)c(S(=O)(=O)c1ccccc1)cn2-c1cnn(C)c1` [P-0185, 4-[3-(benzenesulfonyl)-1-(1-methylpyrazol-4-yl)pyrrolo[2,3-b]pyridin-5-yl]-3,5-dimethyl-isoxazole], the IC50 in assay [3] is at most 1 µM; in assay [2], under 10 µM.

For `Cc1noc(C)c1-c1cnc2[nH]cc(C(O)c3ccc(OCC(F)(F)F)nc3)c2c1` (stereo not drawn) [P-0012, [5-(3,5-dimethylisoxazol-4-yl)-1H-pyrrolo[2,3-b]pyridin-3-yl]-[6-(2,2,2-trifluoroethoxy)-3-pyridyl]methanol], the IC50 is 1 to 10 µM in assay [3] and under 10 µM in assay [2].

For the compound `Cc1noc(C)c1-c1cnc2c(c1)c(C(O)C1CCSCC1)cn2S(=O)(=O)c1ccccc1` (stereo not drawn) [P-0090, [1-(benzenesulfonyl)-5-(3,5-dimethylisoxazol-4-yl)pyrrolo[2,3-b]pyridin-3-yl]-tetrahydrothiopyran-4-yl-methanol], the IC50 is 1 to 10 µM in assay [3] and under 10 µM in assay [2].

For the compound `Cc1noc(C)c1-c1cnc2c(-c3cnn(C(F)F)c3)cn(S(=O)(=O)c3ccccc3F)c2c1` [P-0132, 4-[3-[1-(difluoromethyl)pyrazol-4-yl]-1-(2-fluorophenyl)sulfonyl-pyrrolo[3,2-b]pyridin-6-yl]-3,5-dimethyl-isoxazole], the values for the IC50 in assay [3] and in assay [2] were at most 1 µM and under 10 µM, respectively.

For `Cc1noc(C)c1-c1cnc2c(-c3cnn(C)c3)cn(S(=O)(=O)c3ccccc3)c2c1` [P-0110, 4-[1-(benzenesulfonyl)-3-(1-methylpyrazol-4-yl)pyrrolo[3,2-b]pyridin-6-yl]-3,5-dimethyl-isoxazole], the IC50 in assay [3] is at most 1 µM; in assay [2], under 10 µM.

For the compound `CCCS(=O)(=O)n1cc(-c2cnn(CCOC)c2)c2ncc(-c3c(C)noc3C)cc21` [P-0152, 4-[3-[l-(2-methoxyethyl)pyrazol-4-yl]-1-propylsulfonyl-pyrrolo [3,2-b]pyridin-6-yl]-3,5-dimethyl-isoxazole], the results for the IC50 in assay [3] and in assay [2] were at most 1 µM and under 10 µM, respectively.

With `COC(c1ccc(C(F)(F)F)nc1)c1c[nH]c2ncc(-c3c(C)noc3C)cc12` (stereo not drawn) [P-0013, 4-[3-[methoxy-[6-(trifluoromethyl)-3-pyridyl]methyl]-1H-pyrrolo[2,3-b]pyridin-5-yl]-3,5-dimethyl-isoxazole], the IC50 was at most 1 µM in assay [3] and under 10 µM in assay [2].

With `Cc1noc(C)c1-c1cnc2c(-c3cnn(CC(F)(F)F)c3)cn(S(=O)(=O)c3ccccc3)c2c1` [P-0146, 4-[1-(benzenesulfonyl)-3-[1-(2,2,2-trifluoroethyl)pyrazol-4-yl]pyrrolo[3,2-b]pyridin-6-yl]-3,5-dimethyl-isoxazole], the figures for the IC50 in assay [3] and in assay [2] were at most 1 µM and under 10 µM, respectively.

In the case of `Cc1noc(C)c1-c1cnc2c(-c3cnn(C)c3)cn(CC3(F)CCCCC3)c2c1` [P-0212, 4-[1-[(1-fluorocyclohexyl)methyl]-3-(1-methylpyrazol-4-yl)pyrrolo[3,2-b]pyridin-6-yl]-3,5-dimethyl-isoxazole], the results for the concentration for half-maximal inhibition (IC50) in assay [3] and in assay [2] were at most 1 µM and under 10 µM, respectively.

On to `Cc1noc(C)c1-c1cnc2[nH]c(C)c(Cc3cccnc3)c2c1` [P-0005, 3,5-dimethyl-4-[2-methyl-3-(3-pyridylmethyl)-1H-pyrrolo[2,3-b]pyridin-5-yl]isoxazole], for which the figures for the IC50 in assay [3] and in assay [2] were at most 1 µM and under 10 µM, respectively.

The IC50 is the concentration at which inhibition is half-maximal.

These data come from patent US10501460B2, “Heterocyclic compounds and uses thereof” (Plexxikon Inc., priority 2013, dated 2019).
